Holding throughout (assay): relative viability (nuclei count vs DMSO), 5 days (fraction); higher = more cells survive
Compound in the test “Dactolisib + Pemetrexed”: Cn1c(=O)n(-c2ccc(C(C)(C)C#N)cc2)c2c3cc(-c4cnc5ccccc5c4)ccc3ncc21 [Dactolisib] + Nc1nc2[nH]cc(CCc3ccc(C(=O)N[C@@H](CCC(=O)O)C(=O)O)cc3)c2c(=O)[nH]1 [Pemetrexed] (partner 0.2 µM)
In outline: (§1)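 Lung cancer cell lines were pin-tool dosed in 1536-well plates on the day after seeding, with either a lone drug or a fixed anchor-drug dose plus five library-drug doses (not always all listed) in √10 steps. Nuclei were counted on 4× images after 5 days. Relative viability is the ratio of treated-well to vehicle-well nuclei counts, with each value a median of duplicate plates.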

Compound in the test “AZ505 + Alpelisib”: C1CCC(CC1)N(CCNCCC2=C3C(=C(C=C2)O)NC(=O)CO3)C(=O)CCNCCC4=CC(=C(C=C4)Cl)Cl [AZ505] + Cc1nc(NC(=O)N2CCC[C@H]2C(N)=O)sc1-c1ccnc(C(C)(C)C(F)(F)F)c1 [Alpelisib] (partner 2 µM)
In outline:
as §1

Compound in another test: C1CCC(CC1)N(CCNCCC2=C3C(=C(C=C2)O)NC(=O)CO3)C(=O)CCNCCC4=CC(=C(C=C4)Cl)Cl [AZ505]
A digest of the protocol: (§2)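 A plate was accepted only when its control CV was below 25% and the cells had doubled at least once. Viability is defined from nuclear counts as treated wells divided by vehicle wells, with the median taken across plates. That median covers lung cancer cell lines grown in 1536-well plates, dosed by pinning at five √10-spaced library-drug concentrations, and counted in MetaXpress from 4× Hoechst images after 5 days.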

Compound in a further test: Cn1c(=O)n(-c2ccc(C(C)(C)C#N)cc2)c2c3cc(-c4cnc5ccccc5c4)ccc3ncc21 [Dactolisib]
In outline:
as §2

Regarding CAL-12T, the relative viability with Dactolisib + Pemetrexed (first compound 0.002 µM) stood at 1.23; in the test with Dactolisib + Pemetrexed (first compound 0.006325 µM) it was 1.17; with Dactolisib + Pemetrexed (first compound 0.02 µM), 1.17; in the test with Dactolisib + Pemetrexed (first compound 0.06325 µM), 0.412; with Dactolisib + Pemetrexed (first compound 0.2 µM), 0.325; in the test with AZ505 + Alpelisib (first compound 0.08 µM), 1.05. In addition, the relative viability was found to be 1.23 with AZ505 + Alpelisib (first compound 0.253 µM); 1.23 with AZ505 + Alpelisib (first compound 0.8 µM); 1.24 in the test with AZ505 + Alpelisib (first compound 2.53 µM); 1.33 with AZ505 + Alpelisib (first compound 8 µM); 0.909 in the test with AZ505 (0.08 µM); 0.941 with AZ505 (0.253 µM). Besides, the relative viability with AZ505 (0.8 µM) came out at 0.967; in the test with AZ505 (2.53 µM), 0.956; with AZ505 (8 µM), 1.03; in the test with Dactolisib (0.002 µM), 1.01; in the test with Dactolisib (0.006325 µM), 0.976; with Dactolisib (0.02 µM), 0.721. The relative viability with Dactolisib (0.06325 µM) came out at 0.342; with Dactolisib (0.2 µM), 0.323.

Turning to SK-LU-1, the relative viability was 0.944 with Dactolisib + Pemetrexed (first compound 0.002 µM); 0.913 with Dactolisib + Pemetrexed (first compound 0.006325 µM); 0.874 with Dactolisib + Pemetrexed (first compound 0.02 µM); 0.747 with Dactolisib + Pemetrexed (first compound 0.06325 µM); 0.439 in the test with Dactolisib + Pemetrexed (first compound 0.2 µM); 0.499 with AZ505 + Alpelisib (first compound 0.08 µM). Moreover, the relative viability with AZ505 + Alpelisib (first compound 0.253 µM) stood at 0.846; with AZ505 + Alpelisib (first compound 0.8 µM), 0.537; with AZ505 + Alpelisib (first compound 2.53 µM), 0.69; with AZ505 + Alpelisib (first compound 8 µM), 0.741; with AZ505 (0.08 µM), 0.634; in the test with AZ505 (0.253 µM) it was 0.683. Moreover, the relative viability with AZ505 (0.8 µM) amounted to 0.65; with AZ505 (2.53 µM) it was 0.679; with AZ505 (8 µM), 0.797; with Dactolisib (0.002 µM) it was 0.879; in the test with Dactolisib (0.006325 µM), 0.995; with Dactolisib (0.02 µM), 0.88. The relative viability with Dactolisib (0.06325 µM) is 0.502; with Dactolisib (0.2 µM), 0.359.

In the case of LXF-289, the relative viability turned out to be 0.921 with Dactolisib + Pemetrexed (first compound 0.002 µM); 0.886 with Dactolisib + Pemetrexed (first compound 0.006325 µM); 0.964 in the test with Dactolisib + Pemetrexed (first compound 0.02 µM); 1.02 with Dactolisib + Pemetrexed (first compound 0.06325 µM); 0.619 with Dactolisib + Pemetrexed (first compound 0.2 µM); 0.983 with AZ505 + Alpelisib (first compound 0.08 µM). For the same cell line, the relative viability stood at 1.02 with AZ505 + Alpelisib (first compound 0.8 µM); 1.06 with AZ505 + Alpelisib (first compound 2.53 µM); 1.01 with AZ505 + Alpelisib (first compound 8 µM); 0.967 with AZ505 (0.08 µM); 0.98 in the test with AZ505 (0.253 µM); 0.988 with AZ505 (0.8 µM). The relative viability turned out to be 1.02 with AZ505 (2.53 µM); 1.01 with AZ505 (8 µM); 1.07 in the test with Dactolisib (0.002 µM); 1.04 with Dactolisib (0.006325 µM); 1 in the test with Dactolisib (0.02 µM); 0.998 in the test with Dactolisib (0.06325 µM). In addition, in the test with Dactolisib (0.2 µM), the relative viability was 0.84.

As for NCI-H460, the relative viability came out at 0.0654 with Dactolisib + Pemetrexed (first compound 0.002 µM); 0.0618 with Dactolisib + Pemetrexed (first compound 0.006325 µM); 0.0641 with Dactolisib + Pemetrexed (first compound 0.02 µM); 0.0892 with Dactolisib + Pemetrexed (first compound 0.06325 µM); 0.0591 with Dactolisib + Pemetrexed (first compound 0.2 µM); 0.458 with AZ505 + Alpelisib (first compound 0.08 µM). The relative viability is 0.559 in the test with AZ505 + Alpelisib (first compound 0.253 µM); 0.485 with AZ505 + Alpelisib (first compound 0.8 µM); 0.507 with AZ505 + Alpelisib (first compound 2.53 µM); 0.469 with AZ505 + Alpelisib (first compound 8 µM); 0.991 in the test with AZ505 (0.08 µM); 0.99 in the test with AZ505 (0.253 µM). Besides, the relative viability with AZ505 (0.8 µM) stood at 0.966; with AZ505 (2.53 µM) it was 1; in the test with AZ505 (8 µM), 0.976; with Dactolisib (0.002 µM), 1.04; with Dactolisib (0.006325 µM) it was 0.989; in the test with Dactolisib (0.02 µM) it was 0.984. Moreover, the relative viability with Dactolisib (0.06325 µM) is 0.541; with Dactolisib (0.2 µM), 0.488.

Turning to NCI-H1944, the relative viability amounted to 0.461 in the test with Dactolisib + Pemetrexed (first compound 0.002 µM); 0.564 with Dactolisib + Pemetrexed (first compound 0.006325 µM); 0.585 in the test with Dactolisib + Pemetrexed (first compound 0.02 µM); 0.286 with Dactolisib + Pemetrexed (first compound 0.06325 µM); 0.244 with Dactolisib + Pemetrexed (first compound 0.2 µM); 0.845 in the test with AZ505 + Alpelisib (first compound 0.08 µM). Further, the relative viability was 0.858 in the test with AZ505 + Alpelisib (first compound 0.253 µM); 0.839 in the test with AZ505 + Alpelisib (first compound 0.8 µM); 0.806 in the test with AZ505 + Alpelisib (first compound 2.53 µM); 0.881 with AZ505 + Alpelisib (first compound 8 µM); 0.949 with AZ505 (0.08 µM); 0.989 in the test with AZ505 (0.253 µM). Also, the relative viability worked out at 1.06 with AZ505 (0.8 µM); 0.861 in the test with AZ505 (2.53 µM); 1.02 in the test with AZ505 (8 µM); 1.12 with Dactolisib (0.002 µM); 0.973 with Dactolisib (0.006325 µM); 0.917 with Dactolisib (0.02 µM). Also, the relative viability with Dactolisib (0.06325 µM) came to 0.387; with Dactolisib (0.2 µM), 0.402.

The values are drawn from the supplement of paper PMC10307832.
